Experimental data as given in patent publication US9938261B2, “Heterocyclic compounds and methods of use thereof” (AMBIT BIOSCIENCES CORPORATION, priority 2011, dated 2018).

Legend:
[1] = test system: M-NFS-60 cells; experiment: M-NFS-60 cell proliferation assay (Alamar Blue); type: cell-based, mouse; settings: Mus musculus; M-NFS-60 cell proliferation; read-out: CSF1R M-NFS-60 CTB:IC50
Summary of the method: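 Mouse M-NFS-60 cells growing on 20 ng/mL M-CSF in RPMI/10% FBS were exposed to compounds (9 half-log concentrations, 0.5% DMSO) for 72 h at 37 °C. Viability read by Alamar Blue fluorescence (ex 560/em 590 nm, 3 h). IC50 = 50% proliferation inhibition versus control, mean of duplicates.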

[2] = target: kinase panel containing either 386 or 392 distinct kinases; experiment: Kinase selectivity score S10 from competition binding panel; settings: 10 μM, panel of 386 or 392 distinct kinases
Summary of the method: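 Compounds at 10 μM competed against immobilised affinity ligands for T7 phage-fused or HEK-293-expressed DNA-tagged kinases, 1 h at room temperature; bound kinase eluted and quantified by qPCR. S10 = fraction of distinct non-mutant kinases with percent of DMSO control below 10.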

[3] = target: T1, PDGFRβ (Homo sapiens, UniProt P09619); experiment: Competition binding assay, PDGFRβ Kd; settings: competition binding
T1 construct: made in house
Summary of the method: (§1)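 Kinases as T7-phage fusions or HEK-293-expressed DNA-tagged constructs competed against immobilized biotinylated ligand on streptavidin beads, 1 h at room temperature in binding buffer. Bound kinase eluted and quantified by qPCR; Kd from eleven-point threefold dilution series.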

[4] = target: CSF1R (Homo sapiens, UniProt P07333); experiment: Competition binding assay, CSF1R Kd; parameters: made in house; settings: competition binding
Summary of the method: as §1

[5] = target: T2, KIT (Homo sapiens, UniProt P10721); experiment: Competition binding assay, KIT Kd; settings: competition binding
T2 construct: made in house
Summary of the method: as §1

T2 sequence (P10721 26-976): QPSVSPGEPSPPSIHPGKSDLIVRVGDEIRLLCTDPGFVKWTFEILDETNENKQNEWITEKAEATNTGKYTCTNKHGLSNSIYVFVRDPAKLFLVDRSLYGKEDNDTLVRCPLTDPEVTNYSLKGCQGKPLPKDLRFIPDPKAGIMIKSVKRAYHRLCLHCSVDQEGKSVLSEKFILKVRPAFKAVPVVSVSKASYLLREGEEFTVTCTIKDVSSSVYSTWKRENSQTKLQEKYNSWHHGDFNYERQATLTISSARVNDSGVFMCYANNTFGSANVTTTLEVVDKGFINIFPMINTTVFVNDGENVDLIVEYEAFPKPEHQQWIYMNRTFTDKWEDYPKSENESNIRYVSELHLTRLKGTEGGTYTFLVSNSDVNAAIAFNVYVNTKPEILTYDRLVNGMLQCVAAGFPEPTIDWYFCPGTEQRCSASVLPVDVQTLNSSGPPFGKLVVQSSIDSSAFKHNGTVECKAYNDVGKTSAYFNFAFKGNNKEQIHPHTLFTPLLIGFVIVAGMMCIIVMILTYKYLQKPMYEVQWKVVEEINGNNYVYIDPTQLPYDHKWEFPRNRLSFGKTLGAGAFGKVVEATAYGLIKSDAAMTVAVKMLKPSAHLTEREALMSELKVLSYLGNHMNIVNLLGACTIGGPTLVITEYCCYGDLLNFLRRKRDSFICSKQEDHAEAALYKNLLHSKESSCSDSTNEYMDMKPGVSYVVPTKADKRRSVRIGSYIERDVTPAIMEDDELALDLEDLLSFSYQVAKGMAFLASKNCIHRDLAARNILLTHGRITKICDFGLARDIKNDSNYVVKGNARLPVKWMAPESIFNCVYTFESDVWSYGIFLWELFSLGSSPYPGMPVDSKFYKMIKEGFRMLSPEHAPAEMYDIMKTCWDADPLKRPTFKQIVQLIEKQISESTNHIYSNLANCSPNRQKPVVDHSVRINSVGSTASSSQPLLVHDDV
CSF1R, sequence (P07333 20-972): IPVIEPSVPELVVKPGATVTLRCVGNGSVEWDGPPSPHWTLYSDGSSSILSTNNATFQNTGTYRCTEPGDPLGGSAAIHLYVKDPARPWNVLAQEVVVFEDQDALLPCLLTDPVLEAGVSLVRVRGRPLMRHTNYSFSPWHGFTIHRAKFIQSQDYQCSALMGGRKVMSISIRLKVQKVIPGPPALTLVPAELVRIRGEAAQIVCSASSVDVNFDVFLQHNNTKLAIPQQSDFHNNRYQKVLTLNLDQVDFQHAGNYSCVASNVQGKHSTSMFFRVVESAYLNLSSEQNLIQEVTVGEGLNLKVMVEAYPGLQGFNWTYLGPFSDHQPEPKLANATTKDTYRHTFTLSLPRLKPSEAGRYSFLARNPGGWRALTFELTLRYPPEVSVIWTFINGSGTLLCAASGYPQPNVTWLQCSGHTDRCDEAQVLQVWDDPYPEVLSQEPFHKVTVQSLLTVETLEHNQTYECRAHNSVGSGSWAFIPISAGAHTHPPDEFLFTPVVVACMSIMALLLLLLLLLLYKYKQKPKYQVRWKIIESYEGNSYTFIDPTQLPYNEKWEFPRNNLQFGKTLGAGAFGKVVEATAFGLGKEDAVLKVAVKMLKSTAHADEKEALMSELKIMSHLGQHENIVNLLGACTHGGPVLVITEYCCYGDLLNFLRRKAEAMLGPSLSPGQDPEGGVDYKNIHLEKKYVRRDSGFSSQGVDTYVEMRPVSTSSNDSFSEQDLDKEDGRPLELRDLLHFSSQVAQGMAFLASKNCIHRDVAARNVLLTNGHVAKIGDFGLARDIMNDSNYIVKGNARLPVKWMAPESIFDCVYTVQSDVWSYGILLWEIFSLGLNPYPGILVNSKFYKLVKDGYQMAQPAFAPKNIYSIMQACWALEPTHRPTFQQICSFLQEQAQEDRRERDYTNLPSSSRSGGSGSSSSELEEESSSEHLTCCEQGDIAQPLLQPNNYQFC
T1 sequence (P09619 33-1106): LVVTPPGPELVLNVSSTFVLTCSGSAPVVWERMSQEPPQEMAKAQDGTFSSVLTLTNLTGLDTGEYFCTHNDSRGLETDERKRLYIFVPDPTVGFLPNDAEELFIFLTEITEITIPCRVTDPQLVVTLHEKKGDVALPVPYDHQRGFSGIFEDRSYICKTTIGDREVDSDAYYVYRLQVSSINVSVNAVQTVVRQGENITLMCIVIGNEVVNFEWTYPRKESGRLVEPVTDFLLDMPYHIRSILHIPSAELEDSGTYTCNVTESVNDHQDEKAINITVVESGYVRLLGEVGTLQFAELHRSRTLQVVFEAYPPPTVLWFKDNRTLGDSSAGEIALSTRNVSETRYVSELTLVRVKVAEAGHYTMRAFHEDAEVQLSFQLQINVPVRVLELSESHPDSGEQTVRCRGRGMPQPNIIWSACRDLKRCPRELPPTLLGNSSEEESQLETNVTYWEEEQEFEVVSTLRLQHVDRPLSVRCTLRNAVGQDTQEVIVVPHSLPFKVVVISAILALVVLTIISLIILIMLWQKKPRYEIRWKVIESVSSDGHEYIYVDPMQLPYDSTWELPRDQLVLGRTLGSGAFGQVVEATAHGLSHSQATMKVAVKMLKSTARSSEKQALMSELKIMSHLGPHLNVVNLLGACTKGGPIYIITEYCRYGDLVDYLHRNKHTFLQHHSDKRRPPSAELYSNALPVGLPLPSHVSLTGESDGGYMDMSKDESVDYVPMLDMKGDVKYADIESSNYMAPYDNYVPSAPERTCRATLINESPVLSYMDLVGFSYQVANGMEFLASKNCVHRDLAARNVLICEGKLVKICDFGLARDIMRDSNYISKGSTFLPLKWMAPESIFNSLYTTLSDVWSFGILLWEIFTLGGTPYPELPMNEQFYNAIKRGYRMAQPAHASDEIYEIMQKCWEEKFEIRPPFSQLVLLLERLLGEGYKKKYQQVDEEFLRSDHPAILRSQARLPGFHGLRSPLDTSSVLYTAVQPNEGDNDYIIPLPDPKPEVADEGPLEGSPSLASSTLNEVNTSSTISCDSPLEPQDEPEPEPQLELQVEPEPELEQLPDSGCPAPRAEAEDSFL

Row | SMILES | IC50 [1] | Kinase specificity S(10) [2] | Kd [3] | Kd [4] | Kd [5]
1 | N#Cc1ccc2c(c1)ncn2Cc1ccc2nc(N[C@@H]3CCCC[C@H]3O)sc2c1 [Example 108, 1-((2-(((1R,2R)-2-hydroxycyclohexyl)amino)benzo[d]thiazol-6-yl)methyl)-1H-benzo[d]imidazole-5-carbonitrile] | 50 to 400 nM | A (A≤0.01) | 500 to 2000 nM | 5 to 20 nM | 500 to 2000 nM
2 | CC(C)(O)c1cnc2c(c1)ncn2Cc1ccc2nc(N[C@@H]3CCCC[C@H]3O)sc2c1 [Example 109, (1R,2R)-2-((6-((6-(2-hydroxypropan-2-yl)-3H-imidazo[4,5-b]pyridin-3-yl)methyl)benzo[d]thiazol-2-yl)amino)cyclohexanol] | 50 to 400 nM | A (A≤0.01) | 50 to 500 nM | 20 to 50 nM | 100 to 500 nM
3 | CC(=O)c1ccc2c(c1)ncn2Cc1ccc2nc(N[C@@H]3CCCC[C@H]3O)sc2c1 [Example 110, 1-(1-((2-(((1R,2R)-2-hydroxycyclohexyl)amino)benzo[d]thiazol-6-yl)methyl)-1H-benzo[d]imidazol-5-yl)ethanone] | 50 to 400 nM | A (A≤0.01) | 50 to 500 nM | ≤ 5 nM | 100 to 500 nM
4 | N#Cc1ccc2ncn(Cc3ccc4nc(N[C@@H]5CCCC[C@H]5O)sc4c3)c2c1 [Example 111, 1-((2-(((1R,2R)-2-hydroxycyclohexyl)amino)benzo[d]thiazol-6-yl)methyl)-1H-benzo[d]imidazole-6-carbonitrile] | 50 to 400 nM | A (A≤0.01) | 500 to 2000 nM | 5 to 20 nM | 500 to 2000 nM
5 | CS(=O)(=O)c1ccc2c(c1)ncn2Cc1ccc2nc(N[C@@H]3CCCC[C@H]3O)sc2c1 [Example 112, (1R,2R)-2-((6-((5-(methylsulfonyl)-1H-benzo[d]imidazol-1-yl)methyl)benzo[d]thiazol-2-yl)amino)cyclohexanol] | > 1500 nM | A (A≤0.01) | 500 to 2000 nM | 20 to 50 nM | 500 to 2000 nM
6 | CS(=O)(=O)c1ccc2ncn(Cc3ccc4nc(N[C@@H]5CCCC[C@H]5O)sc4c3)c2c1 [Example 113, (1R,2R)-2-((6-((6-(methylsulfonyl)-1H-benzo[d]imidazol-1-yl)methyl)benzo[d]thiazol-2-yl)amino)cyclohexanol] | > 1500 nM | A (A≤0.01) | > 2000 nM | 20 to 50 nM | 500 to 2000 nM
7 | O[C@@H]1CCCC[C@H]1Nc1nc2ncc(Cn3cnc4cccnc43)cc2s1 [Example 114, (1R,2R)-2-((6-((3H-imidazo[4,5-b]pyridine-3-yl)methyl)thiazolo[4,5-b]pyridine-2-yl)amino)cyclohexanol] | > 1500 nM | A (A≤0.01) | 500 to 2000 nM | > 50 nM | 100 to 500 nM
8 | CC(O)c1cnc2c(c1)ncn2Cc1ccc2nc(N[C@@H]3CCCC[C@H]3O)sc2c1 (stereo partly drawn) [Example 115, (1R,2R)-2-((6-((6-((R,S)-1-hydroxyethyl)-3H-imidazo[4,5-b]pyridin-3-yl)methyl)benzo[d]thiazol-2-yl)amino)cyclohexanol] | 50 to 400 nM | A (A≤0.01) | 50 to 500 nM | > 50 nM | 500 to 2000 nM
9 | N#Cc1ccn2c(Cc3ccc4nc(N[C@@H]5CCCC[C@H]5O)sc4c3)cnc2c1 [Example 117, 3-((2-(((1R,2R)-2-hydroxycyclohexyl)amino)benzo[d]thiazol-6-yl)methyl)imidazo[1,2-a]pyridine-7-carbonitrile] | 400 to 1500 nM | A (A≤0.01) | 50 to 500 nM | 5 to 20 nM | > 2000 nM
10 | O[C@@H]1CCCC[C@H]1Nc1nc2ccc(Cn3cnc4cncnc43)cc2o1 [Example 118, (1R,2R)-2-((6-((9H-purin-9-yl)methyl)benzo[d]oxazol-2-yl)amino)cyclohexanol] | 400 to 1500 nM | A (A≤0.01) | – | 20 to 50 nM | 100 to 500 nM
11 | Cc1cc2ncn(Cc3ccc4nc(N[C@@H]5CCCC[C@H]5O)sc4c3)c2cc1C [Example 119, (1R,2R)-2-((6-((5,6-dimethyl-1H-benzo[d]imidazol-1-yl)methyl)benzo[d]thiazol-2-yl)amino)cyclohexanol] | 50 to 400 nM | A (A≤0.01) | ≤ 50 nM | 5 to 20 nM | ≤ 100 nM
12 | CC(=O)c1ccc2ncn(Cc3ccc4nc(N[C@@H]5CCCC[C@H]5O)sc4c3)c2c1 [Example 120, 1-(1-((2-(((1R,2R)-2-hydroxycyclohexyl)amino)benzo[d]thiazol-6-yl)methyl)-1H-benzo[d]imidazol-6-yl)ethanone] | 50 to 400 nM | B (0.01<B≤0.02) | 50 to 500 nM | 5 to 20 nM | 100 to 500 nM
13 | C#Cc1ccc2c(c1)ncn2Cc1ccc2nc(N[C@@H]3CCCC[C@H]3O)sc2c1 [Example 121, (1R,2R)-2-((6-((5-ethynyl-1H-benzo[d]imidazol-1-yl)methyl)benzo[d]thiazol-2-yl)amino)cyclohexanol] | 50 to 400 nM | A (A≤0.01) | 50 to 500 nM | 5 to 20 nM | 100 to 500 nM
14 | C#Cc1ccc2ncn(Cc3ccc4nc(N[C@@H]5CCCC[C@H]5O)sc4c3)c2c1 [Example 122, (1R,2R)-2-((6-((6-ethynyl-1H-benzo[d]imidazol-1-yl)methyl)benzo[d]thiazol-2-yl)amino)cyclohexanol] | 50 to 400 nM | A (A≤0.01) | 50 to 500 nM | 5 to 20 nM | 100 to 500 nM
15 | COc1nc2c(cc1Br)ncn2Cc1ccc2nc(N[C@@H]3CCCC[C@H]3O)sc2c1 [Example 123, (1R,2R)-2-((6-((6-bromo-5-methoxy-3H-imidazo[4,5-b]pyridin-3-yl)methyl)benzo[d]thiazol-2-yl)amino)cyclohexanol] | 50 to 400 nM | B (0.01<B≤0.02) | ≤ 50 nM | 5 to 20 nM | ≤ 100 nM
16 | N#Cc1cnc2c(c1)ncn2Cc1ccc2nc(N[C@@H]3CCCC[C@H]3O)oc2c1 [Example 124, 3-((2-(((1R,2R)-2-hydroxycyclohexyl)amino)benzo[d]oxazol-6-yl)methyl)-3H-imidazo[4,5-b]pyridine-6-carbonitrile] | 50 to 400 nM | B (0.01<B≤0.02) | ≤ 50 nM | 5 to 20 nM | ≤ 100 nM
17 | O[C@@H]1CCCC[C@H]1Nc1nc2ccc(Cc3cnc4cnccn34)cc2s1 [Example 125, (1R,2R)-2-((6-(imidazo[1,2-a]pyrazin-3-ylmethyl)benzo[d]thiazol-2-yl)amino)cyclohexanol] | 400 to 1500 nM | B (0.01<B≤0.02) | 50 to 500 nM | 5 to 20 nM | 500 to 2000 nM
18 | COc1nc2c(cc1C#N)ncn2Cc1ccc2nc(N[C@@H]3CCCC[C@H]3O)sc2c1 [Example 126, 3-((2-(((1R,2R)-2-hydroxycyclohexyl)amino)benzo[d]thiazol-6-yl)methyl)-5-methoxy-3H-imidazo[4,5-b]pyridine-6-carbonitrile] | 50 to 400 nM | A (A≤0.01) | 50 to 500 nM | 5 to 20 nM | 100 to 500 nM
19 | Cc1ccc2c(c1)ncn2Cc1ccc2nc(N[C@@H]3CCCC[C@H]3O)sc2c1 [Example 127, (1R,2R)-2-((6-((5-methyl-1H-benzo[d]imidazol-1-yl)methyl)benzo[d]thiazol-2-yl)amino)cyclohexanol] | 50 to 400 nM | A (A≤0.01) | ≤ 50 nM | 5 to 20 nM | 100 to 500 nM
20 | O[C@@H]1CCCC[C@H]1Nc1nc2ccc(Cn3cnc4cc(F)c(F)cc43)cc2s1 [Example 128, (1R,2R)-2-((6-((5,6-difluoro-1H-benzo[d]imidazol-1-yl)methyl)benzo[d]thiazol-2-yl)amino)cyclohexanol] | 400 to 1500 nM | B (0.01<B≤0.02) | 50 to 500 nM | 5 to 20 nM | 100 to 500 nM
21 | O[C@@H]1CCCC[C@H]1Nc1nc2ccc(Cn3cnc4cc(F)ccc43)cc2s1 [Example 129, (1R,2R)-2-((6-((5-fluoro-1H-benzo[d]imidazol-1-yl)methyl)benzo[d]thiazol-2-yl)amino)cyclohexanol] | 50 to 400 nM | B (0.01<B≤0.02) | ≤ 50 nM | ≤ 5 nM | ≤ 100 nM
22 | O[C@@H]1CCCC[C@H]1Nc1nc2ccc(Cn3cnc4cc(C(F)(F)F)ccc43)cc2s1 [Example 130, (1R,2R)-2-((6-((5-(trifluoromethyl)-1H-benzo[d]imidazol-1-yl)methyl)benzo[d]thiazol-2-yl)amino)cyclohexanol] | 50 to 400 nM | A (A≤0.01) | ≤ 50 nM | 5 to 20 nM | 100 to 500 nM
23 | O[C@@H]1CCCC[C@H]1Nc1nc2ccc(Cc3cnc4cccnn34)cc2s1 [Example 131, (1R,2R)-2-((6-(imidazo[1,2-b]pyridazin-3-ylmethyl)benzo[d]thiazol-2-yl)amino)cyclohexanol] | ≤ 50 nM | B (0.01<B≤0.02) | ≤ 50 nM | ≤ 5 nM | ≤ 100 nM
